From patent publication US20230159509A1 (Amathus Therapeutics, Inc., priority 2020, published 2023)

Tests used:
human α-synuclein-WT = assay: α-synuclein expression and aggregation assay in differentiated neuronal ReNcell VM cells; assay type: cell-based
Procedure: Assay measuring α-synuclein expression and aggregation in differentiated neuronal ReNcell VM cells transduced with human α-synuclein-WT were used to assess the α-synuclein modulation characteristics of compounds. To this purpose, ReNcell VM cells in growth medium (containing EGF and bFGF) were seeded in 96-well laminin-coated plates.
Three (3) days post-seeding, on DO, the cells were refreshed with differentiation medium (devoid of EGF and bFGF, supplemented with cAMP and GDNF) and transduced with α-synuclein-encoding adenoviruses. On D1, after overnight transduction, the adenoviral medium was removed and test compound CRCs diluted in differentiation medium were added to the cells in biological duplicates (i.e. in wells located on separate assay plates processed on the same day). The assay includes a compound refreshment on D4. On each plate tested, up to six (6) vehicle control samples (0.1% DMSO) and up to six (6) positive control samples (10 μM KU 0063794) were included. Furthermore, each assay run includes an 8-point CRC of the reference compound KU 0063794. After six (6) days of compound treatment (on D7), the cells were fixed using 3.7% formaldehyde.
Assay readouts were aggregate-selective (MJFR-14) and α/β-synuclein (Syn205) immunoreactivity, quantified using high-content analysis with algorithms for Density×Area (D×A). Co-staining of cell nuclei with DAPI is performed to quantify cell number as a measure of potential toxicity. Synuclein immunoreactivity (D×A) was normalized for the number of nuclei (nuc) per imaged well (D×A/nuc). Compound performance was evaluated by efficacy (percentage inhibition (PIN) relative to positive control) and potency (pIC50, when calculable) determination.
Assay quality was confirmed using the following pre-set criteria: Toxicity: ≤25% nuclei loss compared to average DMSO control, Coefficient of variation (CV): ≤20% CV for DMSO control, Assay window: ≥2.0 for Syn205, and Assay window: ≥1.5 for MJF-14.

α-synuclein = α-synuclein aggregation in human embryonic stem cells overexpressing α-synuclein with an AAV vector; assay type: cell-based; conditions: FIG. 9
TRAP1 enzyme = molecular target: T1, TRAP1 enzyme (Homo sapiens, UniProt Q12931); assay: ADP Glo assay of TRAP1 ATPase activity; assay type: biochemical
T1 construct: 150 nM Trap1 enzyme was incubated with various concentrations of the test compound
T1 sequence (Q12931 60-704): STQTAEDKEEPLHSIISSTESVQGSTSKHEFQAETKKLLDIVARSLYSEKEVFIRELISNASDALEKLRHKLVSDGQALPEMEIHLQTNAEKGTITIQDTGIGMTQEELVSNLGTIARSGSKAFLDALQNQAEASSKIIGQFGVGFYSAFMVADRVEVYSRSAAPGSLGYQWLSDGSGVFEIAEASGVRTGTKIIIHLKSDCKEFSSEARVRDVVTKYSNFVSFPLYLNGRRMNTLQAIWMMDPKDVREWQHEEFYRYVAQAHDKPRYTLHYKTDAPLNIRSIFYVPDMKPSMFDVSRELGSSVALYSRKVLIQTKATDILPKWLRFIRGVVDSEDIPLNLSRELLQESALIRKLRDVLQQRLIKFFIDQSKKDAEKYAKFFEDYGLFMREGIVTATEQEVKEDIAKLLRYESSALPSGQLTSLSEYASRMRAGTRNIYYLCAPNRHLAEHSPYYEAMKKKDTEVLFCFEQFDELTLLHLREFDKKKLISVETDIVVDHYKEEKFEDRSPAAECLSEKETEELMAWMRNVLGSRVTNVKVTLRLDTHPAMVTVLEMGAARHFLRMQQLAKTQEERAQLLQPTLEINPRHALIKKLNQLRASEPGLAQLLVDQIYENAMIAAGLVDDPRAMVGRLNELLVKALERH
Method in brief: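 Compound (0.79–100 μM) was preincubated 30 min at 37° C with 150 nM TRAP1 in 25 mM Pipes pH 7.5, 40 mM KCl, 0.05 mM MgCl2. Reaction started with 20 μM ATP, 60 min at 37° C. ADP measured by luminescence against a standard curve; activation fitted sigmoidally for EC50 and Emax.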

MJFR-14 Potency (pIC50) (human α-synuclein-WT; aggregate-selective (MJFR-14) immunoreactivity, D×A/nuc): 5.6
Syn205 Potency (pIC50) (human α-synuclein-WT; α/β-synuclein (Syn205) immunoreactivity, D×A/nuc): 5.6
EC50 (TRAP1 enzyme; concentration for half maximal activation, read-out: ADP GLO DRC: GeoMean EC50): < 10 µM
Emax (TRAP1 enzyme; maximal percent activation, read-out: ADP GLO DRC: Mean Emax): 200 to 300%
SMILES: COc1ncc(NC(=O)c2csc(-c3ccccc3)n2)cc1S(=O)(=O)Nc1c(C)cccc1C [compound 1178]
MJFR-14 Max efficacy (PE) (human α-synuclein-WT; MJFR-14): 36.2
MJFR-14 Max efficacy (PIN) (human α-synuclein-WT; MJFR-14, percentage inhibition relative to positive control (10 μM KU 0063794)): 52.1
Syn205 Max efficacy (PE) (human α-synuclein-WT; Syn205): 44.9
Syn205 Max efficacy (PIN) (human α-synuclein-WT; Syn205, percentage inhibition relative to positive control (10 μM KU 0063794)): 64.7
α-synuclein aggregation (α-synuclein): reduction in α-synuclein aggregation
